From patent US20210308061A1, “PHARMACEUTICAL COMPOSITIONS WITH A CDC7 INHIBITOR” (TAKED PHARMACEUTICAL COMPANY LIMITED, priority 2018, published 2021) come the findings set out here.

The data set in a line: Powder flowability (flow factor FFc), FT4 powder rheometer. The settings on record: Compound 1 alone. The class given is physicochemical. As for the experimental part: For the simulation of the DG process, compression pressure was adjusted to produce ribbon of different porosity. The flowability and compressibility of either preblend or milled ribbon was measured to evaluate the manufacturability of each formulation on the DC and the DG processes. The peak force value of compression and the vertical projection area of tooling were used to calculate the maximum compression pressure (CP). Powder flowability (i.e., flow factor (FFc)) was measured using the FT4 powder rheometer with the characterization method of 3 kPa pre-consolidation and 10 ml filling volume (Freeman Technology, Tewkesbury UK). This method was applied because it was representative of powder flow scenarios in most pharmaceutical manufacturing processes. The true density of powder was measured using the AccuPyc 1340 pycnometer (Micrometrics, Norcross Ga. USA) to calculate porosity of the ribbon.

Consider `Cc1[nH]ncc1-c1cc2nc([C@@H]3CC4CCN3CC4)[nH]c(=O)c2s1` [Compound 1, 2-[(2S)-1-azabicyclo[2.2.2]oct-2-yl]-6-(3-methyl-1H-pyrazol-4-yl)thieno[3,2-d]pyrimidin-4(3H)-one], for which the flow factor entry was “about 2.3”.
